Measurements as given in PubChem BioAssay (NCI).
Where “and” joins values, the source holds several entries; their conditions need not be identical. Equal values may be shown once.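 Results reflect a 48-hour exposure of cells in 96-well plates to compound at five concentrations. Abbreviation: GI50, concentration required for 50% inhibition of growth. TGI marks complete inhibition of growth.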

Assays:
Assay in all cases: NCI tumour cell line growth inhibition, 48 h
M19-MEL melanoma = system: M19-MEL melanoma
DLD-1 colon = system: DLD-1 colon
LXFL 529 NSCLC = system: LXFL 529 NSCLC
XF 498 CNS = system: XF 498 CNS
RXF-631 renal = system: RXF-631 renal
KM20L2 colon = system: KM20L2 colon
MDA-MB-435 = system: MDA-MB-435
MDA-N = system: MDA-N
T-47D breast = system: T-47D breast
P388/ADR leukemia = system: P388/ADR leukemia
SN12K1 renal = system: SN12K1 renal
P388 leukemia = system: P388 leukemia

Structure (SMILES): CCOC(=O)C(=O)Nc1ccccc1CC
- TGI (M19-MEL melanoma): > 100 µM
- TGI (DLD-1 colon): > 100 µM
- TGI (LXFL 529 NSCLC): > 100 µM
- TGI (XF 498 CNS): > 100 µM
- TGI (RXF-631 renal): > 100 µM

Structure (SMILES): CN(C)CCC1(C2=CCCC2)CC/C(=C\c2ccc(Cl)cc2)C1=O (stereo not drawn)
- TGI (M19-MEL melanoma): 13.3 µM
- TGI (KM20L2 colon): 7.82 µM
- TGI (DLD-1 colon): 20.6 µM
- TGI (LXFL 529 NSCLC): 21.4 µM
- TGI (XF 498 CNS): 19.1 µM
- TGI (RXF-631 renal): 25.4 µM

Structure (SMILES): c1ccc(C2N3CCCCC3[C@@H]3c4[nH]c5ccccc5c4CCN23)nc1 (stereo partly drawn)
- TGI (M19-MEL melanoma): > 100 µM
- TGI (KM20L2 colon): > 100 µM
- TGI (DLD-1 colon): > 100 µM
- TGI (LXFL 529 NSCLC): > 100 µM
- TGI (RXF-631 renal): > 100 µM

Structure (SMILES): CN(Cc1ccccc1)C(=O)c1ccccc1C(=O)O
- TGI (M19-MEL melanoma): > 100 µM
- TGI (KM20L2 colon): > 100 µM
- TGI (DLD-1 colon): > 100 µM
- TGI (LXFL 529 NSCLC): > 100 µM
- TGI (XF 498 CNS): > 100 µM
- TGI (RXF-631 renal): > 100 µM

Structure (SMILES): O=C1c2ccccc2C(=O)C1(O)c1c[nH]c2ccccc12
- TGI (M19-MEL melanoma): > 100 µM
- TGI (KM20L2 colon): > 100 µM
- TGI (DLD-1 colon): > 100 µM
- TGI (LXFL 529 NSCLC): > 100 µM
- TGI (XF 498 CNS): > 100 µM
- TGI (RXF-631 renal): > 100 µM

Structure (SMILES): COC(=O)C(CC(=O)Nc1ccc(C)cc1)C(=O)C(=O)Nc1c(C(C)C)cccc1C(C)C (stereo not drawn)
- TGI (M19-MEL melanoma): > 100 µM
- TGI (KM20L2 colon): > 100 µM
- TGI (DLD-1 colon): > 100 µM
- TGI (LXFL 529 NSCLC): > 100 µM
- TGI (XF 498 CNS): > 100 µM
- TGI (RXF-631 renal): > 100 µM

Structure (SMILES): CCOC(=O)CCC(=O)C1c2cccc(O)c2C(=O)c2c(O)cc(C)cc21 (stereo not drawn)
- TGI (M19-MEL melanoma): 1.31 µM
- TGI (KM20L2 colon): 3.51 µM
- TGI (DLD-1 colon): 3.58 µM
- TGI (LXFL 529 NSCLC): 1.75 µM
- TGI (XF 498 CNS): 0.52 µM
- TGI (RXF-631 renal): 1.65 µM

Structure (SMILES): COc1cc2[nH]c3c(c2cc1OC)CCN[C@]31CC[C@]2(CC3c4c(cc(OC)c(O)c42)CCN3C)C[C@H]1OC (stereo partly drawn)
- TGI (M19-MEL melanoma): 32.9 µM
- TGI (KM20L2 colon): 60.5 µM
- TGI (DLD-1 colon): 81 µM
- TGI (LXFL 529 NSCLC): 61 µM
- TGI (XF 498 CNS): 29.8 µM
- TGI (RXF-631 renal): 25.7 µM

Structure (SMILES): CC(=O)O[C@H]1CCC2[C@@H]3CC[C@]4(C)CC(=O)C=C[C@]4(C)C3CC[C@@]21C (stereo partly drawn)
- TGI (MDA-MB-435): 94.7 µM
- TGI (M19-MEL melanoma): 34.7 µM
- TGI (MDA-N): 74.7 µM
- TGI (KM20L2 colon): 43.5 µM
- TGI (DLD-1 colon): 56.9 µM
- TGI (LXFL 529 NSCLC): 28 µM
- TGI (RXF-631 renal): > 100 µM

Structure (SMILES): O=C(/C=C/c1ccc(Cl)c(Cl)c1)c1ccc2ccccc2c1
- TGI (M19-MEL melanoma): > 100 µM
- TGI (KM20L2 colon): > 100 µM
- TGI (DLD-1 colon): > 100 µM
- TGI (LXFL 529 NSCLC): > 100 µM
- TGI (RXF-631 renal): > 100 µM

Structure (SMILES): COc1ccc2c3c([nH]c2c1[N+](=O)[O-])C(C)N(C)CC3 (stereo not drawn)
- TGI (M19-MEL melanoma): > 100 µM
- TGI (KM20L2 colon): > 100 µM
- TGI (DLD-1 colon): > 100 µM
- TGI (LXFL 529 NSCLC): > 100 µM
- TGI (XF 498 CNS): > 100 µM

Structure (SMILES): CC1=CC(C)(C)N=C2SC(c3ccc(N)cc3)=NN12
- TGI (M19-MEL melanoma): > 100 µM
- TGI (KM20L2 colon): > 100 µM
- TGI (DLD-1 colon): > 68.9 µM
- TGI (LXFL 529 NSCLC): > 77.6 µM
- TGI (XF 498 CNS): > 100 µM
- TGI (RXF-631 renal): > 100 µM

Structure (SMILES): CCCCCCCCCCCCCCCC(=O)OCC(C[As](=O)(O)O)OC(=O)CCCCCCCCCCCCCCC (stereo not drawn)
- TGI (MDA-MB-435): > 100 µM
- TGI (M19-MEL melanoma): > 100 µM
- TGI (MDA-N): > 100 µM
- TGI (KM20L2 colon): > 100 µM
- TGI (DLD-1 colon): > 100 µM
- TGI (T-47D breast): > 100 µM
- TGI (LXFL 529 NSCLC): > 100 µM
- TGI (XF 498 CNS): 70.9 µM
- TGI (RXF-631 renal): > 100 µM

Structure (SMILES): O=C(O)CNS(=O)(=O)c1ccc(NC(=O)c2ccc([N+](=O)[O-])cc2)cc1
- TGI (M19-MEL melanoma): > 100 µM
- TGI (KM20L2 colon): > 100 µM
- TGI (DLD-1 colon): > 100 µM
- TGI (LXFL 529 NSCLC): > 100 µM
- TGI (XF 498 CNS): > 100 µM
- TGI (RXF-631 renal): > 100 µM

Structure (SMILES): COc1ccc(CN2CC(C)(C)C2=O)c(OC)c1
- TGI (M19-MEL melanoma): > 100 µM
- TGI (KM20L2 colon): > 100 µM
- TGI (XF 498 CNS): > 100 µM
- TGI (RXF-631 renal): > 100 µM

Structure (SMILES): O=C(CC(=O)n1nc(-c2ccccc2)c(N=Nc2ccc(Cl)cc2)c1-c1ccccc1)Nc1ccc(Cl)cc1
- TGI (M19-MEL melanoma): > 76.2 µM
- TGI (KM20L2 colon): > 100 µM
- TGI (DLD-1 colon): 44.7 µM
- TGI (LXFL 529 NSCLC): > 100 µM
- TGI (RXF-631 renal): > 100 µM

Structure (SMILES): [N-]=[N+]=C1C(=O)NN=C1c1ccccc1
- TGI (M19-MEL melanoma): > 100 µM
- TGI (KM20L2 colon): > 100 µM
- TGI (DLD-1 colon): > 100 µM
- TGI (LXFL 529 NSCLC): > 100 µM
- TGI (XF 498 CNS): > 100 µM
- TGI (RXF-631 renal): > 100 µM

Structure (SMILES): CCOC(=O)/C(C)=C(/O)C(=O)OCC
- TGI (DLD-1 colon): > 100 µM
- TGI (LXFL 529 NSCLC): > 100 µM
- TGI (XF 498 CNS): > 100 µM
- TGI (RXF-631 renal): > 100 µM

Structure (SMILES): Cn1cc(C2(C)CC(C)(C)c3c2n(C)c2ccccc32)c2ccccc21 (stereo not drawn)
- TGI (M19-MEL melanoma): > 100 µM
- TGI (KM20L2 colon): > 100 µM
- TGI (DLD-1 colon): > 100 µM
- TGI (LXFL 529 NSCLC): > 100 µM
- TGI (XF 498 CNS): > 100 µM

Structure (SMILES): O=C(CCc1nc(=S)[nH][nH]1)Nc1ccccc1Cl
- TGI (M19-MEL melanoma): > 100 µM
- TGI (KM20L2 colon): > 100 µM
- TGI (DLD-1 colon): > 100 µM
- TGI (LXFL 529 NSCLC): > 100 µM
- TGI (XF 498 CNS): > 100 µM

Structure (SMILES): Clc1cc(Cl)c2ns[s+]c2c1Cl
- TGI (M19-MEL melanoma): > 100 µM
- TGI (KM20L2 colon): > 100 µM
- TGI (DLD-1 colon): > 100 µM
- TGI (LXFL 529 NSCLC): > 100 µM
- TGI (XF 498 CNS): > 100 µM

Structure (SMILES): CCOC(=O)N[C@@H]1C(CC(=O)OC)O[C@H]2OC(C)(C)O[C@H]21 (stereo partly drawn)
- TGI (M19-MEL melanoma): > 100 µM
- TGI (KM20L2 colon): > 100 µM
- TGI (DLD-1 colon): > 100 µM
- TGI (LXFL 529 NSCLC): > 100 µM
- TGI (XF 498 CNS): > 100 µM
- TGI (RXF-631 renal): > 100 µM

Structure (SMILES): O=C(Nc1ccccc1-c1nc2ccccc2[nH]c1=O)c1ccccc1
- TGI (M19-MEL melanoma): 91.2 µM
- TGI (KM20L2 colon): > 100 µM
- TGI (DLD-1 colon): 68.2 µM
- TGI (LXFL 529 NSCLC): 69.2 µM
- TGI (XF 498 CNS): 49.9 µM

Structure (SMILES): O=C(c1cccc2ccccc12)N1CCC(C2CCN(C(=O)c3cccc4ccccc34)CC2)CC1
- TGI (M19-MEL melanoma): > 100 µM
- TGI (KM20L2 colon): > 100 µM
- TGI (DLD-1 colon): > 100 µM
- TGI (LXFL 529 NSCLC): > 100 µM
- TGI (XF 498 CNS): > 100 µM
- TGI (RXF-631 renal): > 100 µM

Structure (SMILES): COc1cc(Cc2nccc3cc(OC)c(OC)cc23)c(C(C)=O)cc1OC
- GI50 (M19-MEL melanoma): > 750 µM
- TGI (M19-MEL melanoma): 223 µM and > 750 µM
- TGI (P388/ADR leukemia): 30 µM
- TGI (SN12K1 renal): 300 µM
- GI50 (KM20L2 colon): > 750 µM
- TGI (KM20L2 colon): 200 µM and > 750 µM
- GI50 (DLD-1 colon): 118 µM
- TGI (DLD-1 colon): 169 µM and 351 µM
- TGI (T-47D breast): 25.1 µM
- TGI (LXFL 529 NSCLC): > 750 µM
- TGI (XF 498 CNS): 300 µM
- TGI (RXF-631 renal): > 750 µM
- TGI (P388 leukemia): 119 µM

Structure (SMILES): Cc1cc(NS(=O)(=O)c2ccc(Nc3c4ccccc4nc4c(C(=O)N5CCN(CCO)CC5)cccc34)cc2)no1
- TGI (M19-MEL melanoma): > 100 µM
- TGI (KM20L2 colon): > 100 µM
- TGI (DLD-1 colon): > 100 µM
- TGI (LXFL 529 NSCLC): > 100 µM
- TGI (XF 498 CNS): > 100 µM
